{"source": "patent US10150984B2", "about": "“Tyrosine kinase biosensors and methods of use” (Purdue Research Foundation, priority 2012, dated 2018)", "key": {"[1]": {"test_system": "peripheral T-cell lymphomas (PTCLs)", "settings": "PTCL cells; cited from earlier work"}, "Syk-EGFP": {"molecular_target": "Syk-EGFP (Mus musculus, UniProt P48025)", "sequence (P48025 whole entry)": "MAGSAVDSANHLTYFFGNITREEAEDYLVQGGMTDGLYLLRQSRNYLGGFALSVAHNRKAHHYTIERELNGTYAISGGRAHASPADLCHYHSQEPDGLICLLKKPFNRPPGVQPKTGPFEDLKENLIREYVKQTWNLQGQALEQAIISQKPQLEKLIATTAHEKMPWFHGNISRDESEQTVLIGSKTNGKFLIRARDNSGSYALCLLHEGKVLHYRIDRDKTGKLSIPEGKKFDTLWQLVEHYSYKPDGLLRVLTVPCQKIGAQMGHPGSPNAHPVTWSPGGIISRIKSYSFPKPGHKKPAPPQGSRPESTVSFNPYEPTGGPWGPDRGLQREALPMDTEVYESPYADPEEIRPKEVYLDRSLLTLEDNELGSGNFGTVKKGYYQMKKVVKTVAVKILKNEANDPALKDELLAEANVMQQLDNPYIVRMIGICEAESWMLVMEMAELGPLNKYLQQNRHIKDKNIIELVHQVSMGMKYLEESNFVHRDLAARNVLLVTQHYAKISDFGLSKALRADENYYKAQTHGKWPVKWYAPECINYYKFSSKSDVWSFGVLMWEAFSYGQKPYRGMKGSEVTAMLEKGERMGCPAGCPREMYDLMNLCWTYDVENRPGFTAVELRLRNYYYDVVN", "assay": "Terbium time-resolved luminescence dose-response inhibition assay with SAStide", "assay_type": "biochemical", "settings": "SAStide 37.5 μM, 30 min, Tb3+ luminescence, read-out: observed IC50"}, "[2]": {"assay": "Tb3+ binding affinity and stoichiometry by sensitized luminescence"}, "Abl [3]": {"molecular_target": "T1, Abl (Homo sapiens, UniProt P00519)", "T1 sequence (P00519 whole entry, species assumed)": "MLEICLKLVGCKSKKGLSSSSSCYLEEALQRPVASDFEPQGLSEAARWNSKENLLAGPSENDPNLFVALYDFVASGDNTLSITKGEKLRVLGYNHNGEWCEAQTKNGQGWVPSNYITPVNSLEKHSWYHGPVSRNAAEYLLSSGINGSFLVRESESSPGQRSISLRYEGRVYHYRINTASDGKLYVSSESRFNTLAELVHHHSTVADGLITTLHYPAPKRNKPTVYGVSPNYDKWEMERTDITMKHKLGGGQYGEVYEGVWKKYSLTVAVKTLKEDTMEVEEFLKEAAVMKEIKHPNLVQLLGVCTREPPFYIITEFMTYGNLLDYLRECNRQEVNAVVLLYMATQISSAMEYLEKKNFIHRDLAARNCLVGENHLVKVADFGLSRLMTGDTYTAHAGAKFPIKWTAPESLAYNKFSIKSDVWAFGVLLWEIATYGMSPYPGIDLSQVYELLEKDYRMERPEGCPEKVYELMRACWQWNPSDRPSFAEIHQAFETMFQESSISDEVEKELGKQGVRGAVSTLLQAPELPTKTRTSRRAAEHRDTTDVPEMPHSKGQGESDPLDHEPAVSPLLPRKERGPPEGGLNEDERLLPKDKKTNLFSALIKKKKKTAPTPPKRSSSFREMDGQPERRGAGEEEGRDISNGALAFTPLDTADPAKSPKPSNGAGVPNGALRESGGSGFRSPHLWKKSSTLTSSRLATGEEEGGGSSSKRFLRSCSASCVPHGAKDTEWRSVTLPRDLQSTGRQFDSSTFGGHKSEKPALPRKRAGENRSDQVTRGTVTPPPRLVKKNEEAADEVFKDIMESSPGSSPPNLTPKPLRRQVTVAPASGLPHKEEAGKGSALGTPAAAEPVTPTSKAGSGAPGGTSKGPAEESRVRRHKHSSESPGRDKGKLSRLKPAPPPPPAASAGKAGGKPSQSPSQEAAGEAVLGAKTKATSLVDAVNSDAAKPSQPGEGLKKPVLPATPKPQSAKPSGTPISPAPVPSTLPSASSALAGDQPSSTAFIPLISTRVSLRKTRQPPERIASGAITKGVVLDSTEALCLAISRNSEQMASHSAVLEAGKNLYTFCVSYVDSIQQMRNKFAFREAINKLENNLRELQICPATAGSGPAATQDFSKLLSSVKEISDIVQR", "assay": "In vitro kinase assay, ELISA-based detection of peptide phosphorylation", "assay_type": "biochemical", "settings": "ELISA read-out", "protocol": "(§1) In vitro kinase assay. Recombinant Abl, Src and Lyn enzymes were obtained from a commercial source (Millipore). EGFP-conjugated Syk was isolated from DT40 chicken B cells stably expressing Syk-EGFP. GFP-conjugated Lck was isolated from Jurkat cells stably expressing Lck-EGFP. Cells were lysed using a solution containing 1% Nonidet P-40, 50 mM Tris-HCl pH 8.0, 100 mM NaCl, 5 mM EDTA, 1 mM sodium orthovanadate, 2 mM NaF and 1× mammalian protease inhibitor cocktail (Sigma). Syk- and Lck-EGFP were immunoprecipitated using GFP-Trap_A beads (Chromotek) or anti-GFP magnetic nanoparticle beads (MBL, Japan). Lysates were incubated with the beads for 1 h at 4° C. The kinase-bound beads were washed and then used in the in vitro kinase assay. Syk-EGFP, Lck-EGFP, or purified Abl or Src kinase (0.1 U) were incubated with kinase reaction buffer (500 μM ATP, 5 mM MnCl2, HEPES, pH 7.2) containing the peptide substrate at 25 μM. Aliquots (22 μL) were taken at designated time points and quenched in 0.5 M EDTA, pH 8.5 (22 μL). The quenched sample (1 μL) was diluted into ELISA-based detection wash buffer and analyzed as described below. For substrate comparison assays, kinase reaction conditions were as described above except that substrate concentrations were 4 μM, and concentration of enzyme used per reaction was 6 nM. The volume of aliquots diluted in an equal volume of quench buffer was 4 μl (for 8 μl total quenched volume), and the entire quenched amount was diluted into ELISA wash buffer and analyzed as described below.\n(§2) ELISA-based fluorescence detection. Samples were incubated in a 96-well Neutravidin™ coated plate (Thermo Scientific) in Tris-buffered saline (TBS) containing 0.1% BSA and 0.05% Tween 20 for 1 h at room temperature on a short-radius plate shaker (600 rpm). Following incubation, wells were washed three times with wash buffer (TBS, 0.1% BSA, 0.05% Tween 20), then incubated with mouse anti-phosphotyrosine monoclonal antibody 4G10 (1:5000 dilution in wash buffer, 100 μL per well) for 1 h at room temperature with shaking. Wells were washed three times with wash buffer and incubated with horseradish peroxidase-conjugated goat anti-mouse immunoglobulin G (IgG) secondary antibody (Abcam) (1:1000 dilution in the wash buffer, 100 μL per well) for 1 h at room temperature with shaking. Wells were then washed three times with wash buffer and twice with sodium phosphate buffer (0.05 M, pH 7.5). For chemifluorescence detection, Amplex Red™ reaction buffer (100 μL total volume/well) consisting of Amplex Red™ reagent (50 μL) (Invitrogen), 20 mM H2O2 (500 μL) and sodium phosphate buffer (4500 μL) and allowed to react for 30 min. Fluorescence of Amplex Red™ was measure using a Synergy4 multiwell plate reader (Biotek) with an excitation wavelength of 532 nm and emission wavelength of 590 nm."}, "Lyn": {"molecular_target": "Lyn (Homo sapiens, UniProt P07948)", "sequence (P07948 whole entry, species assumed)": "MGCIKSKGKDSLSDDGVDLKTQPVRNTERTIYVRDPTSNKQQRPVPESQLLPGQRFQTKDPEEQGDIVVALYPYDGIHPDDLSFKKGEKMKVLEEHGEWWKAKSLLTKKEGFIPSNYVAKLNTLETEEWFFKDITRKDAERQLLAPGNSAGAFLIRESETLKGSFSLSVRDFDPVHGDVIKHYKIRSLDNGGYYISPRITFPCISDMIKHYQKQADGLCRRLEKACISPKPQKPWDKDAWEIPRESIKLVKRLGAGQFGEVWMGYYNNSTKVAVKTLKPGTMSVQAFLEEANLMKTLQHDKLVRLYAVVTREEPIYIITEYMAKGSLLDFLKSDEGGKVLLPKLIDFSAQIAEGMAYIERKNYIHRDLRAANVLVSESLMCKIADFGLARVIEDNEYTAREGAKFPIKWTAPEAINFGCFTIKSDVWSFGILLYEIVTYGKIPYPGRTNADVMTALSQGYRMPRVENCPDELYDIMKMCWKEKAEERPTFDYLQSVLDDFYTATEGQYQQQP", "assay": "In vitro kinase assay, ELISA-based detection of peptide phosphorylation", "assay_type": "biochemical", "settings": "ELISA read-out", "protocol": "as §1, §2"}, "Src": {"molecular_target": "Src (Homo sapiens, UniProt P12931)", "assay": "In vitro kinase assay, ELISA-based detection of peptide phosphorylation", "assay_type": "biochemical", "settings": "ELISA read-out", "protocol": "as §1, §2"}, "Syk": {"molecular_target": "T2, Syk (Mus musculus, UniProt P48025)", "T2 construct": "made in house; host or cells: DT40 chicken B cells (Syk-deficient, reconstituted with Syk-EGFP)", "T2 sequence (P48025 whole entry)": "as the sequence (P48025 whole entry) above", "assay": "In vitro kinase assay, ELISA-based detection of peptide phosphorylation", "assay_type": "biochemical", "settings": "ELISA read-out", "protocol": "as §1, §2"}, "[4]": {"test_system": "DG75 and DT40 B cell lines", "assay": "Toxicity of SAStide biosensor peptide in the cell-based assay", "settings": "peptide at 25 μM", "protocol": "Cell culture and biological reagents. The DG75 and DT40 B cell lines were grown to a density of 0.4×10^6 cells/mL in RPMI-1640 medium containing 7.5% FBS, 1 mM sodium pyruvate, 100 IU/mL penicillin, 100 μg/mL streptomycin and 50 μM 2-metcaptoethanol. Additionally, DT40 cell medium contained 1% chicken serum. Anti-chicken IgM and anti-mouse IgM F(ab′)2 fragments were purchased from Bethyl Laboratories. Anti-human IgM was purchased from Rockland Immunochemicals. Hydrogen peroxide was purchased from Mallinckrodt. Anti-Syk (N-19) was purchased from Santa Cruz Biotechnology. Anti-tubulin and anti-phosphotyrosine (4G10) were purchased from Millipore. Anti-phospho Syk (Y525/526) was purchased from Cell SignalingTechnology.\nCell-Based peptide SAStide biosensor assay. […] Aliquots of the cell suspension (1 mL) were harvested, lysed in PhosphoSafe Extraction Reagent (EMD Millipore) containing 167 mM EDTA and freshly prepared protease inhibitor cocktail (Roche) and flash frozen. Half the cell lysate from each sample was used for ELISA-based fluorescence detection and the other for immunoblotting. For dose-response experiments, cells were stimulated with varying concentrations of anti-IgM (2.5-10 μg/mL) or hydrogen peroxide (1-7 mM), harvested at 5 min post-stimulation and processed as described above. For immunoblotting, membranes were blocked in 5% goat serum for 1 h. […]"}, "Bcr-Abl [5]": {"molecular_target": "T3, Bcr-Abl (Homo sapiens, UniProt P00519)", "T3 sequence (P00519 with tags, fused parts or gaps)": "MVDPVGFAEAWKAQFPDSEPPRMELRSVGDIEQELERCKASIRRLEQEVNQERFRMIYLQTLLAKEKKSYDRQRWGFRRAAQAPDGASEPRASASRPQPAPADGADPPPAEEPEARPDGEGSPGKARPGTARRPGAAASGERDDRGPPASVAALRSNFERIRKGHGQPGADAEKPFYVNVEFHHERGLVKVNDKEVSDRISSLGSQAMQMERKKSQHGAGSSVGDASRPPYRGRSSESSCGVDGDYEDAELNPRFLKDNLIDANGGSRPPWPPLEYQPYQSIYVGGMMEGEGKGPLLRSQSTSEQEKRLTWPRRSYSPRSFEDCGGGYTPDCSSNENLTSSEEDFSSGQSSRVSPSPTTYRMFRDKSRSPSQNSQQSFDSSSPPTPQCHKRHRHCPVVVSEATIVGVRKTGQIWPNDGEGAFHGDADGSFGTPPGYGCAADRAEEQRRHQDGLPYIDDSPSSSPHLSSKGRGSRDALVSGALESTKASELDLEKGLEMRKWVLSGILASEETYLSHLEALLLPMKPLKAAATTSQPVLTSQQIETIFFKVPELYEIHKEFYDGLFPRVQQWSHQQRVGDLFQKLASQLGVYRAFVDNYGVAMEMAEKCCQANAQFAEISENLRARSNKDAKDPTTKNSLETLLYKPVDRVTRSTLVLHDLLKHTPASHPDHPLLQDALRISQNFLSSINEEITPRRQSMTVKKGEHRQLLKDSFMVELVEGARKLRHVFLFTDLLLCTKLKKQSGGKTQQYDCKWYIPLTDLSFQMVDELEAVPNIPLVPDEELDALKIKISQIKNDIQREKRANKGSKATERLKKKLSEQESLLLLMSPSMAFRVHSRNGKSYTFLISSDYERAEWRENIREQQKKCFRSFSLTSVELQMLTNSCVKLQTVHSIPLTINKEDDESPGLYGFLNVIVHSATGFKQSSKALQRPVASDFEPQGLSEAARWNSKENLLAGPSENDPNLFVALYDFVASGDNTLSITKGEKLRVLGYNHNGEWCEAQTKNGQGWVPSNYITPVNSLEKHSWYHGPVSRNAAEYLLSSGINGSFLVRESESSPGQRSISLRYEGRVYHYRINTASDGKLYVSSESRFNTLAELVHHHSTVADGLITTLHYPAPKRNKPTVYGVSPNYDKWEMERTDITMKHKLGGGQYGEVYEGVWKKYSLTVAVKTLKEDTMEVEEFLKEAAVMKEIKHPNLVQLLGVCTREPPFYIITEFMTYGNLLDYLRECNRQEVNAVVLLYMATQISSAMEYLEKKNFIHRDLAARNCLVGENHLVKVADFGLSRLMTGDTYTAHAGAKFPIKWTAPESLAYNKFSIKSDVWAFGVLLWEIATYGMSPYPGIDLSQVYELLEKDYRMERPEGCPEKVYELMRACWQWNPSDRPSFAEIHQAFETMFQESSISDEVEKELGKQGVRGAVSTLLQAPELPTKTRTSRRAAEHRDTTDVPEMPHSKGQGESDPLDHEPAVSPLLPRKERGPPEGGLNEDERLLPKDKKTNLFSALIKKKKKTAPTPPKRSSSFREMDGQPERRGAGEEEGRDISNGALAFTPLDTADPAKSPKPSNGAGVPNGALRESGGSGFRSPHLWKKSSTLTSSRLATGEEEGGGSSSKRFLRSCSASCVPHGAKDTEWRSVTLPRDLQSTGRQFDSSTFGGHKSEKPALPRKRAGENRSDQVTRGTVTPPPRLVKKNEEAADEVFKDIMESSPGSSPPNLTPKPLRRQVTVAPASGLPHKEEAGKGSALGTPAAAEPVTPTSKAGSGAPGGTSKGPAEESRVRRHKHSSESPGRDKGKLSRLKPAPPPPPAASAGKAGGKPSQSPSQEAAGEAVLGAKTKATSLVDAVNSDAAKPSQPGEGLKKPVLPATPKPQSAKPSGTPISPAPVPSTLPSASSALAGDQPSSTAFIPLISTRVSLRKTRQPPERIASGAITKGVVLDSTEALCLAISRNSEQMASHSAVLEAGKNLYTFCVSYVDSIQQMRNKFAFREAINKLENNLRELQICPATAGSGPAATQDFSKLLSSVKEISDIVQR", "assay": "Cell-based Bcr-Abl biosensor assay in K562 cells, Western blot"}, "K562 cells": {"test_system": "K562 cells", "assay": "Intracellular degradation of biosensor peptide in K562 cells, MALDI-TOF/TOF", "settings": "5 min exposure"}, "Abl [6]": {"molecular_target": "T1, Abl", "assay": "ABStide specificity in vitro kinase assay (terbium luminescence, confirmed by ELISA)", "assay_type": "biochemical", "settings": "terbium-sensitized luminescence", "protocol": "Terbium based in vitro kinase assays. Recombinant kinases were incubated with the kinase reaction buffer (15 nM kinase, 100 μM ATP, 10 mM MgCl2, 125 ng/μL BSA and 25 mM HEPES pH 7.5, total volume 180 μL) containing 12.5 μM biosensor at 30° C. Aliquots (20 μL) were taken at designated time points (0.5, 5, 10, 15, 30, 45 and 60 min) and quenched in 6 M urea (20 μL). The quenched samples were then treated with the luminescence buffer (500 μM Tb^3+ and 500 mM NaCl, 10 μL) for a total volume of 50 μL (final concentrations of sample components: 2.4 M urea, 40 μM ATP, 4 mM MgCl2, 50 ng/μL BSA and 10 mM HEPES pH 7.5). Luminescence emission spectra were collected as described above and the area under each spectrum was integrated using GraphPad Prism. An additional aliquot (2 μL) of the kinase reaction mixture was taken at each time point for validation of phosphorylation using an ELISA-based chemifluorescent assay as previously described. Briefly, each aliquot was quenched with 0.5 M EDTA and incubated in a 96-well Neutravidin coated plate (15 pmol biotin binding capacity per well, Thermo Scientific) in Tris-buffer saline (TBS) containing 0.1% BSA and 0.05% Tween 20 for 1 h. […] Fluorescence was measured using a Synergy4 multiwell plate reader (Biotek) with an excitation wavelength of 532 nm and emission wavelength of 590 nm."}, "Bcr-Abl [7]": {"molecular_target": "T3, Bcr-Abl", "assay": "Cell-based Bcr-Abl biosensor assay in K562 cells, MRM mass spectrometry", "parameters": "endogenous in cells; host or cells: K562 cells; the other entry of the earlier key: BCR (P11274, Breakpoint cluster region protein)", "settings": "5 min, 1 μg lysate"}, "[8]": {"settings": "1 μM peptide, Tb3+ 0-50 μM, read-out: Kd of peptide:terbium complex"}}, "note": "Where two headings read alike, the source gives them in different places. *1 amine or outer side, *2 acyl side, *3 side chain or, on linkers, in order; H or OH if unused. Where no end group is shown, it is not given here. [ ]: non-standard residue; d: D form. The star is where a group is joined. ξ: configuration not given here. ξβ3hPhg(2-NO2) = O=C(CC(N[*:1])c1ccccc1[N+](=O)[O-])[*:2]; Biotin = O=C1N[C@H]2[C@H](CS[C@H]2CCCCC(=O)*)N1"}
{"molecule": "COc1cc(Nc2ncc(F)c(Nc3ccc4c(n3)NC(=O)C(C)(C)O4)n2)cc(OC)c1OC", "note": "[R406]", "values": [{"measurement": "effect on cells with elevated Syk Y525/Y526 phosphorylation", "setting": "[1]", "value": "induces apoptosis and blocks proliferation"}]}
{"molecule": "Oc1cc(O)cc(/C=C/c2ccc(O)c(O)c2)c1", "note": "[piceatannol]", "values": [{"measurement": "IC50", "setting": "Syk-EGFP", "value": "178 ± 1.4", "unit": "µM"}]}
{"molecule": "DEEDYEEPDEP [SAStide]", "values": [{"measurement": "Kd", "setting": "[2]; read-out: Kd of 1:1 peptide-terbium complex", "value": "7.64 ± 0.32", "unit": "µM"}, {"measurement": "phosphorylation of peptide by Abl", "setting": "Abl [3]", "value": "none of which produced any significant signal"}, {"measurement": "phosphorylation of peptide by Lyn", "setting": "Lyn", "value": "none of which produced any significant signal"}, {"measurement": "phosphorylation of peptide by Src", "setting": "Src", "value": "none of which produced any significant signal"}, {"measurement": "phosphorylation of peptide by Syk", "setting": "Syk", "value": "phosphorylated"}, {"measurement": "toxicity of peptide to cells", "setting": "[4]", "value": "no toxicity was observed"}]}
{"molecule": "EAIYAAPFAKKK(Biotin)G[ξβ3hPhg(2-NO2)]GCGGAPTYSPPPPPGGRKKRRQRRRLL [Abl biosensor]", "values": [{"measurement": "uptake into K562 cells", "setting": "Bcr-Abl [5]; 25 μM peptide", "value": "readily taken up"}, {"measurement": "intact peptide after exposure to cells", "setting": "K562 cells", "value": "essentially no intact peptide was observed"}]}
{"molecule": "GGDEDDNDEVAYQAPFEDGGKbiotinGG (GGDEDDNDEVAYQAPFEDGGK(Biotin)GG) [ABStide, Abl artificial substrate peptide]", "values": [{"measurement": "substrate specificity Abl against Hck", "setting": "Abl [6]", "value": "specific for Abl"}]}
{"molecule": "GGDNEGDVYDFVEDGGKbiotin (GGDNEGDVYDFVEDGGK(Biotin)GG) [SFAStideB, Src family artificial substrate peptide B]", "values": [{"measurement": "Kd", "setting": "[2]; [8]", "value": 2.5, "unit": "µM"}]}
{"molecule": "GGEEDEDIYEELDEPGGKbiotinGG [SFAStide-A]", "values": [{"measurement": "Kd", "setting": "[2]; [8]", "value": 3.93, "unit": "µM"}, {"measurement": "phosphorylation of peptide by Abl", "setting": "Abl [3]", "value": "will not"}, {"measurement": "phosphorylation of peptide by Lyn", "setting": "Lyn", "value": "phosphorylate SFAStide-A efficiently"}, {"measurement": "phosphorylation of peptide by Src", "setting": "Src", "value": "phosphorylate SFAStide-A efficiently"}, {"measurement": "phosphorylation of peptide by Syk", "setting": "Syk", "value": "will not"}]}
{"molecule": "pSFAStideA [Phosphorylated form of SFAStide-A]", "values": [{"measurement": "Kd", "setting": "[2]; [8]", "value": 0.77, "unit": "µM"}]}
{"molecule": "pervanadate [reference compound]", "values": [{"measurement": "effect on phosphorylation of Abl biosensor", "setting": "Bcr-Abl [5]; K562 cells, 10 μM imatinib or 1 μM pervanadate, 5, 30, 60 min", "value": "stabilized"}, {"measurement": "phosphorylated biosensor peptide detected", "setting": "Bcr-Abl [7]", "value": "higher levels"}]}
